What was measured:
interstitial pneumonia = details: patient; drip infusion 1 ppm hydrogen 250 ml plus hydrogen gas inhalation (6 to 7%, 120 ml/min) 30 to 60 minutes once weekly for 8 weeks
Method: A patient who was diagnosed as having interstitial pneumonia received a drip infusion of hydrogen (1 ppm hydrogen, 250 ml) and inhalation of hydrogen gas over 30 minutes to 60 minutes once weekly for 8 weeks. MHG-2000α manufactured by MiZ Company Limited (hydrogen gas concentration 6 to 7%, 120 ml/min) was used for inhalation of a hydrogen gas.

[1] = room temperature, normal pressure; also printed as 1.6 mg/L; cited from earlier work
[2] = tested on: chronic bronchitis and obstructive lung bronchitis; details: mice; earlier study; cited from earlier work

SMILES: [HH] [hydrogen, molecular hydrogen]
- improvement of interstitial pneumonia, confirmed by disappearance of ground-glass opacity in the CT finding (interstitial pneumonia): Significant improvement
- concentration of hydrogen dissolved in water [1]: approximately 1.6 ppm
- effect on chronic bronchitis and obstructive lung bronchitis [2]: improved chronic bronchitis and obstructive lung bronchitis
